Laboratory results: PubChem BioAssay (NCI)
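48-hour exposure; five concentrations; linearly interpolated endpoints. At the GI50, growth is halved. TGI: concentration producing complete growth inhibition.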

How the values were obtained:
Experiment in all cases: NCI anticancer screen, dose series, 48 h
[1] = tested on: UACC-257 melanoma
[2] = tested on: OVCAR-3 ovarian
[3] = tested on: SR leukemia
[4] = tested on: OVCAR-4 ovarian
[5] = tested on: SNB-75 CNS
[6] = tested on: KM12 colon
[7] = tested on: IGROV1 ovarian
[8] = tested on: K-562 leukemia
[9] = tested on: CAKI-1 renal
[10] = tested on: UACC-62 melanoma
[11] = tested on: CCRF-CEM leukemia
[12] = tested on: UO-31 renal
[13] = tested on: NCI-H23 lung
[14] = tested on: BT-549 breast
[15] = tested on: HL-60(TB) leukemia
[16] = tested on: A549 NSCLC
[17] = tested on: HT29 colon
[18] = tested on: SK-MEL-28 melanoma
[19] = tested on: HS 578T breast
[20] = tested on: PC-3 prostate
[21] = tested on: EKVX NSCLC
[22] = tested on: SK-MEL-2 melanoma
[23] = tested on: NCI-H460 lung
[24] = tested on: NCI-H226 lung
[25] = tested on: HOP-92 NSCLC
[26] = tested on: ACHN renal
[27] = tested on: TK-10 renal
[28] = tested on: NCI/ADR-RES ovarian
[29] = tested on: A498 renal

Compound `O=C1NC(=O)c2c1c1c3ccccc3ccc1c1[nH]c3ccccc3c21` has a GI50 [1] of 3740 nM, a TGI [1] greater than 80400 nM and a GI50 [2] of 2430 nM. It also gave a TGI [2] of 19300 nM, a GI50 [3] of 169 nM and a TGI [3] of 2920 nM. The GI50 [4] was 1790 nM, the TGI [4] was 19600 nM and the GI50 [5] was 4020 nM. For the same compound, the TGI [5] was 16600 nM, the GI50 [6] was 115 nM and the TGI [6] was greater than 100000 nM. The GI50 [7] was 529 nM, the TGI [7] was greater than 56200 nM and the GI50 [8] was 543 nM. For the same compound, the TGI [8] was greater than 91100 nM, the GI50 [9] was 228 nM and the TGI [9] was 11700 nM. For the same compound, the GI50 [10] was 749 nM, the TGI [10] was greater than 62300 nM and the GI50 [11] was 457 nM. The TGI [11] was greater than 68700 nM, the GI50 [12] was 239 nM and the TGI [12] was 21900 nM. The GI50 [13] was 699 nM, the TGI [13] was greater than 100000 nM and the GI50 [14] was 279 nM. For the same compound, the TGI [14] was 2330 nM, the GI50 [15] was 233 nM and the TGI [15] was greater than 100000 nM. For the same compound, the GI50 [16] was 971 nM, the TGI [16] was greater than 100000 nM and the GI50 [17] was 631 nM. It also gave a TGI [17] greater than 91100 nM, a GI50 [18] of 911 nM and a TGI [18] greater than 100000 nM. It also gave a GI50 [19] of 1080 nM, a TGI [19] greater than 31500 nM and a GI50 [20] of 420 nM. It also gave a TGI [20] of 30400 nM, a GI50 [21] of 2040 nM and a TGI [21] greater than 58400 nM. For the same compound, the GI50 [22] was 1200 nM, the TGI [22] was greater than 100000 nM and the GI50 [23] was 400 nM. For the same compound, the TGI [23] was 24400 nM, the GI50 [24] was 641 nM and the GI50 [25] was 857 nM. The TGI [25] was 7420 nM, the GI50 [26] was 336 nM and the TGI [26] was 13200 nM. It also gave a GI50 [27] of 486 nM, a TGI [27] of 11400 nM and a GI50 [28] of 1570 nM. It also gave a TGI [28] greater than 87000 nM, a GI50 [29] of 491 nM and a TGI [29] of 2710 nM.
